Test results as given in patent publication US10407388B2, “Thiourea derivatives as activators of RORα and pharmaceutical composition containing same” (SEOUL NATIONAL UNIVERSITY R & DB FOUNDATION, priority 2011, dated 2019).

Legend:
FAS = experiment: Expression of FAS protein in HepG2 cells, western blotting; format: cell-based, human; conditions: for expression of FAS, which had been increased by T17: 0, 1, 10, 50, 100 μM with 1 μM T17, 24 hours, FIGS. 6b and 6c; for expression of FAS protein: 100 μM, 24 hours, FIG. 6a
Procedure: HepG2 cells (1×10^6 cells/well) were seeded on a 60-dish and cultured overnight in a DMEM containing 10% FBS. The HepG2 cells were maintained at 37° C. in a humidification thermostat containing 5% CO2 and 95% air. After culturing, the HepG2 cells were treated with each of the JC1-38, JC1-40, and JC1-42 compounds at a concentration of 100 μM, and, as a positive control, the HepG2 cells were treated with 2 mM metformin, which is an AMPK activator, for 24 hours. After treatment, the expression of proteins was analyzed by western blotting analysis. That is, after treatment, the HepG2 cells were destroyed on ice in a lysis buffer containing 50 mM NaCl, 50 mM Tris pH 7.4, 5 mM EDTA, 1% NP-40, and a protease inhibitor for 30 minutes, and then centrifuged to obtain a total cell lysate. 20 μg to 30 μg of proteins collected from the total cell lysate was subjected to 7% to 9% sodium dodecyl sulfate-polyacrylamide gel electrophoresis (SDS-PAGE), and was transferred to a polyvinylidene difluoride membrane (Millipore, Bedford, Mass., USA). The resulting product was subjected to blocking with 5% or 10% (w/v) nonfat dry milk in PBS containing 0.1% Tween-20, and was reacted with antibodies specific to RORα (Affinity BioReagents), LXRα, SREBP-1, FAS (Santa Cruz Biotechnology), phospho-ACC (Cell signaling), and α-tubulin (Calbiochem). Immunoreactive proteins were detected with Amersham ECL western blotting detection reagents using a horseradish peroxidase (HRP)-conjugated secondary antibody (Zymed Lab). Protein concentrations were quantified by bicinchoninic acid (BCA) (Pierce) analysis, and the expression of α-tubulin was monitored as a control. The results thereof are illustrated in FIG. 6a.
In addition, HepG2 cells were cultured under the same conditions, and then the HepG2 cells were treated with particular concentrations (0 μM, 1 μM, 10 μM, 50 μM, and 100 μM) of JC1-40 (or JC1-42) and 1 μM T17 for 24 hours. After treatment, the expression of proteins was analyzed by western blotting analysis, and the expression of α-tubulin was monitored as a control. The results thereof are illustrated in FIGS. 6b and 6c.

ACC [1] = experiment: Phosphorylation of ACC in HepG2 cells, western blotting; format: cell-based, human; conditions: 100 μM, 24 hours; FIGS. 7a and 7b
Procedure: HepG2 cells (1×10^6 cells/well) were seeded on a 60-dish, and cultured overnight in a DMEM containing 10% FBS. The HepG2 cells were maintained at 37° C. in a humidification thermostat containing 5% CO2 and 95% air. After culturing, the HepG2 cells were treated with 100 μM JC1-38 and JC1-40 (or 100 μM JC1-38 and JC1-42), 2 mM metfornin, and 2 mM AICIR for 24 hours. After treatment, the expression of RORα and phosphorylated ACC (pACC) proteins was analyzed by western blotting, and the expression of α-tubulin was monitored as a control. The results thereof are illustrated in FIGS. 7a and 7b.

HepG2 cells = experiment: Lipid accumulation in hepatocytes, Nile red staining and flow cytometry; format: cell-based, human; conditions: 50 μM with oleic acid/palmitic acid mixture, 3 days; FIGS. 10a and 10b
Procedure: HepG2 cells (3×10^5 cells/well) were seeded on a 60-dish and cultured overnight in a DMEM containing 10% FBS. The HepG2 cells were maintained at 37° C. in a humidification thermostat containing 5% CO2 and 95% air. After culturing, the HepG2 cells were treated with 50 μM JC1-40 (or JC1-42) and, as a lipid generation inducing material, a fatty acid mixture prepared by mixing 0.5 mM oleic acid and 0.5 mM palmitic acid in a ratio of 2:1 (5 mM oleic acid and 5 mM palmitic acid were mixed in a medium containing 1% fatty acid-free bovine serum albumin (BSA) and diluted to the final concentration prior to use) for 3 days. After 3 days, cell lysates were collected, and stained with 1 μg/ml of Nile red at room temperature for 15 minutes, and the concentration of triglycerides was measured by a flow cytometry method using a FACSCalibur™ machine (BD Biosciences). Fluorescence emission was measured at a wavelength between 500 nm and 580 nm. The results thereof are illustrated in FIGS. 10a and 10b.

ACC [2] = experiment: Phosphorylation of ACC in liver of mice with high-fat diet-induced fatty liver, western blotting; format: in vivo; conditions: oral, 10 mg/kg/day or 30 mg/kg/day for 2 days; liver tissue; FIG. 11b
Procedure: (§1) 3 days after the diet was fed, the mice were fed the high-fat diet containing safflower oil while being orally administered JC1-40 and JC1-42, which had been diluted with 0.5% carboxymethyl cellulose, at a dose of 10 mg/kg/day or 30 mg/kg/day for 2 days. 5 days after the diet was fed, the mice were sacrificed to extract liver tissues therefrom, and the expression of proteins was analyzed by western blotting analysis. That is, after treatment, each liver tissue was homogenized in a lysis buffer containing 50 mM NaCl, 50 mM Tris pH 7.4, 5 mM EDTA, 1% NP-40, and a protease inhibitor, and then centrifuged to obtain a total cell lysate. 20 μg to 30 μg of proteins collected from the total cell lysate was subjected to 7% to 9% SDS-PAGE, and was transferred to a polyvinylidene difluoride membrane (Millipore, Bedford, Mass., USA). […] Immunoreactive proteins were detected with Amersham ECL western blotting detection reagents using an HRP-conjugated secondary antibody (Zymed Lab). Protein concentrations were quantified by BCA (Pierce) analysis, and the expression of α-tubulin was monitored as a control. […]

SREBP-1 = experiment: Expression of SREBP-1 protein in liver of mice with high-fat diet-induced fatty liver, western blotting; format: in vivo; conditions: oral, 10 mg/kg/day or 30 mg/kg/day for 2 days; liver tissue; FIG. 11b
Procedure: as §1

[3] = test system: high-fat diet-induced fatty liver mice model; experiment: Blood biochemical analysis in high-fat diet-induced fatty liver mice model; format: in vivo; conditions: FIG. 13; for amount of blood triglycerides, which had been increased by the high-fat diet / amount of blood glucose / amount of total blood cholesterol: oral, 10 mg/kg/day or 30 mg/kg/day for 2 days; for amount of blood glucose / amount of total blood cholesterol: versus high-fat diet group
Procedure: 3 days after the diet was fed, the mice were fed the high-fat diet containing safflower oil while being orally administered JC1-40 and JC142, which had been diluted with 0.5% carboxymethyl cellulose, at a dose of 10 mg/kg/day or 30 mg/kg/day for 2 days. 5 days after the diet was fed, the mice were sacrificed to collect blood, and serum samples were collected therefrom.

[4] = 30 mg/kg/day, compared to the high-fat diet group

Compound	expression of FAS, which had been increased by T17 (FAS)	expression of FAS protein (FAS)	phosphorylation of ACC (ACC [1])	lipid accumulation in hepatocytes (HepG2 cells)	phosphorylation of ACC (ACC [2])	expression of SREBP-1 protein, which had been increased by the high-fat diet (SREBP-1)	GOP [3, 4]	GPT [3, 4]	amount of high-density lipoproteins [3, 4]	amount of blood triglycerides, which had been increased by the high-fat diet [3]	amount of blood glucose [3]	amount of total blood cholesterol [3]
CNC(=S)NCc1ccc(OCc2ccccc2)cc1 [Compound 40, 1-(4-benzyloxy-benzyl)-3-methyl-thiourea]	decreased in a manner dependent on the concentration	decreased	increased	significantly decreased	increased	decreased	decreased	decreased	increased	decreased	not different from those in the high-fat diet group	not different from those in the high-fat diet group
CNC(=S)NCc1ccc(Oc2ccccc2)cc1 [Compound 42, 1-(4-phenoxy-benzyl)-3-methyl-thiourea]	decreased in a manner dependent on the concentration	decreased	increased	significantly decreased	increased	decreased			increased	decreased	not different from those in the high-fat diet group	not different from those in the high-fat diet group
